What was measured:
[1] = molecular target: T1, EGFR L858R (NCI-H3255 cells) (Homo sapiens, UniProt P00533, L858R); experiment: EGFR (L858R) degradation analysis, Total EGFR (L858R) HTRF, NCI-H3255 cells; format: cell-based; details: 6 hours
T1 construct: NCI-H3255 (harboring EGFR heterozygous L858R mutation); host or cells: NCI-H3255
Text: NCI-H1975 (harboring EGFR heterozygous T790M/L858R mutations) and NCI-H3255 (harboring EGFR heterozygous L858R mutation) were purchased from ATCC and NCI, respectively. NCI-H1975+CS (harboring EGFR heterozygous T/790M/L858R/C797S mutations) was generated using CRISPR technology to introduce the additional C797S mutation by Horizon Discovery. RPMI 1640 no-phenol red medium and fetal bovine serum (FBS) were purchased from Gibco (Grand Island, NY, USA). Cell culture flasks and 384-well microplates were acquired from VWR (Radnor, PA, USA). Total EGFR (L858R) HTRF assay kits were purchased from Cisbio (Bedford, MA, USA).
Degradation of EGFR protein containing L858R mutation was determined based on quantification of FRET signal using Total EGFR (L858R) HTRF assay kit. Test compounds were added to the 384-well plate from a top concentration of 10 μM with 11 points, half log titration in duplicates. NCI-H1975, NCI-H1975+CS or NCI-H3255 cells were added into 384-well plates at a cell density of 10000, 10000 or 1000 cells per well, respectively. The plates were kept at 37° C. with 5% CO2 for 6 hours. Cells treated in the absence of the test compound were the negative control. Positive control was set by wells containing all reagents but no cells. FRET signal was acquired on EnVision™ Multilabel Reader (PerkinElmer, Santa Clara, CA, USA).

[2] = molecular target: T2, EGFR T790M/L858R (NCI-H1975 cells) (Homo sapiens, UniProt P00533, L858R/T790M); experiment: EGFR (L858R) degradation analysis, Total EGFR (L858R) HTRF, NCI-H1975 cells; format: cell-based; details: 6 hours
T2 construct: NCI-H1975 (harboring EGFR heterozygous T790M/L858R mutations); host or cells: NCI-H1975
T2 sequence (P00533 25-1210 T790M/L858R): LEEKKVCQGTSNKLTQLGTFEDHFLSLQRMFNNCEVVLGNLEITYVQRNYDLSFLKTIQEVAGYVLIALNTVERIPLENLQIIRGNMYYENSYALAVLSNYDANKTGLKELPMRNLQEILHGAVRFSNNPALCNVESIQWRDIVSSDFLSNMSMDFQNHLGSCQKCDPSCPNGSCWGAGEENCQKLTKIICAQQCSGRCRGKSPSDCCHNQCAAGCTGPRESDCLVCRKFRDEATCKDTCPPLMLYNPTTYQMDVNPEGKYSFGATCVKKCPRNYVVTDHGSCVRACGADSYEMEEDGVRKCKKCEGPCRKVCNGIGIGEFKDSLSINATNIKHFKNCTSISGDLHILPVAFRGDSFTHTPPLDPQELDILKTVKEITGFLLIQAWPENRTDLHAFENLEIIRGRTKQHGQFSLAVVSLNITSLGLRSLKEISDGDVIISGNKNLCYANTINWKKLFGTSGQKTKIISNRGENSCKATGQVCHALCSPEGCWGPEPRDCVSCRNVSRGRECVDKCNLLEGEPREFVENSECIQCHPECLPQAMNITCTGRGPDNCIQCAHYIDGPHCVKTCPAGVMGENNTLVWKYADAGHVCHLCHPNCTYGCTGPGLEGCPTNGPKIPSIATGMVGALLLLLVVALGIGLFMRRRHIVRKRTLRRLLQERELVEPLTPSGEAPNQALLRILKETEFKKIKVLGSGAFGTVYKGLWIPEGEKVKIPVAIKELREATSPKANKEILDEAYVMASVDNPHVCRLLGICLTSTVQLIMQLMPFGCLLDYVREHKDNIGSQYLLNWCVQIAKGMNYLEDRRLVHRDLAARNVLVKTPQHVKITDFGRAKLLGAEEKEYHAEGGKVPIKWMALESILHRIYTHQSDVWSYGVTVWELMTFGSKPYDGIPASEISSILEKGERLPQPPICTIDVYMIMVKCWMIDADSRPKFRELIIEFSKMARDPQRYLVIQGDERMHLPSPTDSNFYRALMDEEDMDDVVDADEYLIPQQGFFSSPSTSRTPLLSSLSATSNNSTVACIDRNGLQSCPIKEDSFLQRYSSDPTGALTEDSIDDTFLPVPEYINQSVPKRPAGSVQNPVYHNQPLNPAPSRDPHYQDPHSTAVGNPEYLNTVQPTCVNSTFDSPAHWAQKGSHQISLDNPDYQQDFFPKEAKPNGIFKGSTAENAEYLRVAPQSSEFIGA
Outline: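 Cells (10000/well NCI-H1975 and NCI-H1975+CS, 1000/well NCI-H3255) treated with 11-point half-log titrations from 10 μM top, in duplicate, for 6 hours at 37° C., 5% CO2. Total EGFR (L858R) quantified by HTRF FRET; untreated cells as negative and cell-free wells as positive control.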

T1 sequence (P00533 25-1210 L858R): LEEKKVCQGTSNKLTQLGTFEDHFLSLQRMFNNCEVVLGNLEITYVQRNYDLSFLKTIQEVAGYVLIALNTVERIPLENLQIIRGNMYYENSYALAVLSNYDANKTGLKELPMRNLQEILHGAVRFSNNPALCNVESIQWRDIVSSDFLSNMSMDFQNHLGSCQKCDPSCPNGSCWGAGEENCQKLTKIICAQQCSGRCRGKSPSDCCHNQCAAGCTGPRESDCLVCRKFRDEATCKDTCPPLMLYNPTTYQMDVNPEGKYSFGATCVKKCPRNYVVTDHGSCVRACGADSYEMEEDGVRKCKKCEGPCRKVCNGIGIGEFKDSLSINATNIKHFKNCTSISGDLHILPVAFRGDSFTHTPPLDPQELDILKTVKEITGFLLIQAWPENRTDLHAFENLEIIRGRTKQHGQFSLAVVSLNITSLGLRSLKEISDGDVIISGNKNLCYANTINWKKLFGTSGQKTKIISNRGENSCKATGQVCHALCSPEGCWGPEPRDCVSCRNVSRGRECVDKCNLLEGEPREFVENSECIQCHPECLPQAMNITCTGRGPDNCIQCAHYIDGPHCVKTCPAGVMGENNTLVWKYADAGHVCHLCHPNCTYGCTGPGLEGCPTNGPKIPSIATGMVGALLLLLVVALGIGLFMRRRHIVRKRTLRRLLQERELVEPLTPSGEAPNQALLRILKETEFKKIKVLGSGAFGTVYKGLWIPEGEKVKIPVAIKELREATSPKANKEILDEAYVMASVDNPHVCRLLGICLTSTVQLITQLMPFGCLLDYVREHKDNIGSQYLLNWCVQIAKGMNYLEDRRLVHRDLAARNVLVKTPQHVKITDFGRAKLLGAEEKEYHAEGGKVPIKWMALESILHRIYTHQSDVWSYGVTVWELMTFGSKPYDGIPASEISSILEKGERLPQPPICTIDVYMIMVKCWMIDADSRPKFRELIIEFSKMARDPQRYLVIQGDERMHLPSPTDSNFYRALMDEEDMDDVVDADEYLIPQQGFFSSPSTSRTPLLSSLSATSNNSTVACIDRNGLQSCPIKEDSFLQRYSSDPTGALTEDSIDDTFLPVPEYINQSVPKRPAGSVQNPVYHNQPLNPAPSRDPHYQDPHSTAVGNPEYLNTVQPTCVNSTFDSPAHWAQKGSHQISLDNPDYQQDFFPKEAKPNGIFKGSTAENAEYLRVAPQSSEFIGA

Row | Structure (SMILES) | DC50 [1] | DC50 [2]
1 | O=C1CC[C@H](Nc2ccc(C3CCN(CC(=O)N4CCC(n5cc(-c6cc(F)c7c(c6)C(=O)N(C(C(=O)Nc6nccs6)c6ncn8c6CCC8)C7)nn5)CC4)CC3)cc2)C(=O)N1 (stereo partly drawn) [Compound 30, 2-(6,7-dihydro-5H-pyrrolo[1,2-c]imidazol-1-yl)-2-(6-(1-(1-(2-(4-(4-(((S)-2,6-dioxopiperidin-3-yl)amino)phenyl)piperidin-1-yl)acetyl)piperidin-4-yl)-1H-1,2,3-triazol-4-yl)-4-fluoro-1-oxoisoindolin-2-yl)-N-(thiazol-2-yl)acetamide] | 35 nM | 15 nM
2 | O=C1CCC(Nc2ccc(C3CCN(C(=O)C(=O)N4CCC(Oc5ccc(-c6cc(F)c7c(c6)C(=O)N(C(C(=O)Nc6nccs6)c6ncn8c6CCC8)C7)cc5)CC4)CC3)cc2)C(=O)N1 (stereo not drawn) [Compound 40, 2-(6,7-dihydro-5H-pyrrolo[1,2-c]imidazol-1-yl)-2-[6-[4-[[1-[2-[4-[4-[(2,6-dioxo-3-piperidyl)amino]phenyl]-1-piperidyl]-2-oxo-acetyl]-4-piperidyl]oxy]phenyl]-4-fluoro-1-oxo-isoindolin-2-yl]-N-thiazol-2-yl-acetamide] | 14 nM | 21 nM
3 | Cn1nc(N2CCC(=O)NC2=O)c2ccc(C3CCN(CC(=O)N4CCN(c5ccc(-c6cc(F)c7c(c6)C(=O)N(C(C(=O)Nc6nccs6)c6ncn8c6C[C@@H](F)C8)C7)cc5)CC4)CC3)cc21 (stereo partly drawn) [Compound 45, 2-[6-[4-[4-[2-[4-[3-(2,4-dioxohexahydropyrimidin-1-yl)-1-methyl-indazol-6-yl]-1-piperidyl]acetyl]piperazin-1-yl]phenyl]-4-fluoro-1-oxo-isoindolin-2-yl]-2-[(6R)-6-fluoro-6,7-dihydro-5H-pyrrolo[1,2-c]imidazol-1-yl]-N-thiazol-2-yl-acetamide] | 16 nM | 14 nM
4 | O=C1CC[C@H](Nc2ccc(C3CCN(CC(=O)N4CC5(CCN(c6ccc(-c7cc(F)c8c(c7)C(=O)N(C(C(=O)Nc7nccs7)c7ncn9c7CCC9)C8)cc6)CC5)C4)CC3)c(F)c2)C(=O)N1 (stereo partly drawn) [Compound 46, 2-(6,7-dihydro-5H-pyrrolo[1,2-c]imidazol-1-yl)-2-(6-(4-(2-(2-(4-(4-(((S)-2,6-dioxopiperidin-3-yl)amino)-2-fluorophenyl)piperidin-1-yl)acetyl)-2,7-diazaspiro[3.5]nonan-7-yl)phenyl)-4-fluoro-1-oxoisoindolin-2-yl)-N-(thiazol-2-yl)acetamide] | 51 nM | 51 nM
5 | Cn1nc(N2CCC(=O)NC2=O)c2ccc(C3CCN(CC(=O)N4CC5(C4)CN(c4ccc(-c6cc(F)c7c(c6)C(=O)N(C(C(=O)Nc6nccs6)c6ncn8c6CCC8)C7)cc4)C5)CC3)cc21 (stereo not drawn) [Compound 49, 2-(6,7-dihydro-5H-pyrrolo[1,2-c]imidazol-1-yl)-2-[6-[4-[2-[2-[4-[3-(2,4-dioxohexahydropyrimidin-1-yl)-1-methyl-indazol-6-yl]-1-piperidyl]acetyl]-2,6-diazaspiro[3.3]heptan-6-yl]phenyl]-4-fluoro-1-oxo-isoindolin-2-yl]-N-thiazol-2-yl-acetamide] | 10 nM | 18 nM
6 | O=C1CC[C@H](Nc2ccc(C3CCN(CC(=O)N4CC5(C4)CN(c4ccc(-c6cc(F)c7c(c6)C(=O)N(C(C(=O)Nc6ccccn6)c6ncn8c6CCC8)C7)cc4)C5)CC3)c(F)c2)C(=O)N1 (stereo partly drawn) [Compound 53, 2-(6,7-dihydro-5H-pyrrolo[1,2-c]imidazol-1-yl)-2-[6-[4-[2-[2-[4-[4-[[(3S)-2,6-dioxo-3-piperidyl]amino]-2-fluoro-phenyl]-1-piperidyl]acetyl]-2,6-diazaspiro[3.3]heptan-6-yl]phenyl]-4-fluoro-1-oxo-isoindolin-2-yl]-N-(2-pyridyl)acetamide] | 37 nM | 64 nM

Source: US12486290B2, “Isoindolinone and indazole compounds for the degradation of EGFR” (C4 THERAPEUTICS, INC., priority 2019, dated 2025)
